In patent publication US6582907B1, “Use of fluorescence correlation spectroscopy to identify compounds that bind to target species under isothermal denaturing conditions” (Pharmacia & Upjohn Company, priority 1999, dated 2003):

Target: T1, HIV-1 protease (Human immunodeficiency virus type 1 group M subtype B, UniProt P04585)
T1 construct: The enzyme HIV-1 protease exists as a dimer
Experiment: Isothermal denaturation of Oregon Green-labelled HIV-1 protease monitored by fluorescence correlation spectroscopy (FCS)
Assay type: binding
Experimental: HIV-1 Protease. HIV-1 Protease was extensively dialyzed against 0.1 M sodium phosphate, 0.05% NaN3, pH 6.5, at 5° C., using a Pierce Slide-A-Lyzer™ (2,000 MWCO). The protease concentration was approximately 1 mg/mL. There was a slight turbidity after dialysis. Protease recovery was assumed to be 100% (53 nanomoles in 1.1 mL).
A freshly prepared solution of Oregon Green™ Iodoacetamide (Molecular Probes Inc., Cat. No. O-6010; approximately 10 mM in DMSO) was added at zero and 5 hours of incubation to achieve at each time a 3-fold molar ratio of Oregon Green™ to protease. At approximately 8 hours another addition of a 4-fold molar excess was made. After each addition the solution was gently but thoroughly mixed. Incubations were without agitation at 5° C. and continued for 16 hours after the last addition.
The resulting clear solution was chromatographed over a Bio-Gel P-6 Desalting Gel™ column (0.9 cm×25 cm) using 50% volume/volume (v/v) glacial acetic acid/distilled-water as the eluant. […]
The solution of conjugated protease was 0.2 micron filtered and evaluated for Oregon Green™ concentration by extinction and for protease concentration by amino acid analysis. Spectrophotometric results determined an Oregon Green™ concentration of 1.94 μM. […]
Microfuge tubes containing 1.5 mL buffer were placed in a pre-equilibrated 48° C. water bath and the temperature was monitored with a telethermometer. […]
This material was diluted to 10 nM in a 2.0 mL teflon chamber already located on the microscope stage containing the same buffer at room temperature. […] Binning combines the fluorescence measurements from contiguous time-periods. […]
The autocorrelated data were analyzed with a nonlinear least squares (NLLSF) fitting program based on that disclosed in Yamaoka et. al., J. Pharmacobio Dyn., 4, 8-15 (1981). […]
In these experiments, since both native and denatured proteins exist, the calculated results represent an average value for the amount of material in the two states. […] The data were analyzed with weighting values of either zero or single inverse weighting. […]

[1] = HIV-1 protease incubated with compound at 48° C. for 24 minutes, single inverse weighting, FIG. 8B

Compound: CCC[C@@]1(CCc2ccccc2)CC(O)=C([C@H](CC)c2cccc(NS(=O)(=O)c3ccc(C(F)(F)F)cn3)c2)C(=O)O1 [PNU-140690]
- stabilization of HIV-1 protease against isothermal denaturation (change in apparent diffusion coefficient as a function of time) (48° C., time points 0 to 60 minutes, with vs without compound, FIG. 9): clearly stabilizes the enzyme
- G(0) (unimolecular model, autocorrelation curve) [1]: 292×10^−3±11.7×10^−3
- diffusion coefficient (unimolecular model, autocorrelation curve) [1]: 1.33×10^−6±0.09×10^−6
